Measured values taken from patent publication US9480751B2, “Albumin binding probes and drug conjugates thereof” (priority 2011, dated 2016).

Key:
[1] = Hydrophobic chromatography (analytical HPLC, chromolite RP-18e) as estimate of overall lipophilicity; details: chromolite R.P-18e column, mixture of 40 μg each, FIG. 3
Procedure: Analytical reverse phase-HPLC was performed using a pre-packed Chromolith™ Performance RP-18e column (4.6×100 mm, Merck, Darmstadt, Germany). The column was eluted with a binary gradient of 10-100% solution B over 10 min with a flow rate of 3 ml/min (solution A was 0.1% trifluoroacetic acid in H2O and solution B was 0.1% trifluoroacetic acid in acetonitrile:H2O; 3:1, v/v).
This approach of hydrophobic chromatography yields an estimate of the overall lipophilicity of peptide analogs (Shechter et al., 2010).

[2] = said to have; cited from earlier work
CD1-mice = test: Blood glucose levels in CD1 mice after a single administration; format: in vivo
Procedure: (§1) Each point is the arithmetic mean of n=6 mice±SE.
as §1
Blood glucose levels were determined at varying time points following administration of insulin, exendin-4, and their derivatives in blood aliquots taken from the tail vein. Glucose analyzer (Beckman Instruments Fullerton, Calif.) was used. Groups consisted of six mice each. Data are presented as means±SE.

[3] = background statement; cited from earlier work
[4] = single subcutaneous 0.25 nmole/mouse, CD1 mice

| Substance | Rt value, hydrophobic chromatography (estimate of overall lipophilicity) [1] [min] | Duration of action [2] | Blood glucose level 48 hrs after administration (last time point) (CD1-mice; intravenous 0.25 nmole/mouse) | t1/2 value of glucose-lowering (CD1-mice; single intravenous 0.25 nmole/mouse, CD1 mice) [h] | Glucose level reached after administration (CD1-mice; [4]) [mg/dL] | Period over which glucose remained at low level (CD1-mice; [4]) [h] | t1/2 value of glucose-lowering (CD1-mice; [4]) [h] | Glucose level reached after administration (CD1-mice; single subcutaneous 0.25 nmole/mouse, CD1 mice, listed as HO3S—(CH2)15—CO-exendin-4) | t1/2 of glucose reduction (CD1-mice; subcutaneous and intravenous administration, stated together) [h] | t1/2 of glucose-lowering effect (CD1-mice; single subcutaneous 0.69 nmole/mouse, CD1 mice) [h] | t1/2 in plasma [3] [min] |
| --- | --- | --- | --- | --- | --- | --- | --- | --- | --- | --- | --- |
| N^εB29-tetradecanoyl des(B30) insulin [insulin-detemir] | 9.107 | up to 24 hours | – | – | – | – | – | – | – | – | – |
| exendin-4-CO—(CH2)15—SO3^− | – | – | still low | 28 ± 2 | 70 ± 5 | ~24 | 32 ± 2 | 70+5 mg/dl | 28 to 32 | – | – |
| insulin: Human (Zn^2+-free) insulin | 7.312 | – | – | – | – | – | – | – | – | 2 ± 0.2 | 5 to 6 |
